Laboratory results published in PMC3073714 (Chemistry and physics of lipids, 2010).

Target: T1, DNA topoisomerase IB (LdTopIB) (Leishmania donovani, UniProt A0A3Q8IHS4+Q8WQM6)
T1 sequence (A0A3Q8IHS4 1-635): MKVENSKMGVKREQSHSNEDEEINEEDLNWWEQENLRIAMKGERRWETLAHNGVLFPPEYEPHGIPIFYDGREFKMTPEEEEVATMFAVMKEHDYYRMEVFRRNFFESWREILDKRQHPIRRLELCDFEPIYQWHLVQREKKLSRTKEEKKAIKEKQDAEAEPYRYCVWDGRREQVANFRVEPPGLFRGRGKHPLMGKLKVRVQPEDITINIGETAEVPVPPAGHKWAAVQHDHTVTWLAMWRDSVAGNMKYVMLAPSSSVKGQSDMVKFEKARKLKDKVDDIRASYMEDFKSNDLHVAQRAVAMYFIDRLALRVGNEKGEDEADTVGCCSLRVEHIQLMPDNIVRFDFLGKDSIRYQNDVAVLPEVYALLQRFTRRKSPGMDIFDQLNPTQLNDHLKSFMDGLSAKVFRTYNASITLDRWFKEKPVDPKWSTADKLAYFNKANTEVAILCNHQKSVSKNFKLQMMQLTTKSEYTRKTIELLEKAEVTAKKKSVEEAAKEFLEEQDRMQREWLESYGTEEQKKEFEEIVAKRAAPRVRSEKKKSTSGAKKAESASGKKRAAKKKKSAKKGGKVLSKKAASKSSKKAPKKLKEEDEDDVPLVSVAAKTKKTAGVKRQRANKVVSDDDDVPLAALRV
T1 sequence (Q8WQM6 1-262): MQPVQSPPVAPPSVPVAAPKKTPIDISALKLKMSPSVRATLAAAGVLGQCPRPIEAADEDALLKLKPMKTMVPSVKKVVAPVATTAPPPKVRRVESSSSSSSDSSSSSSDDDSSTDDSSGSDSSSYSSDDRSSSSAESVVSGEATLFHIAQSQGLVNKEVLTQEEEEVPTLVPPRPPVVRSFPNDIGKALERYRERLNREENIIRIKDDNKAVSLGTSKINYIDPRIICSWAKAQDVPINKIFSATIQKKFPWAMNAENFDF
Assay: supercoiled plasmid DNA relaxation assay with purified recombinant enzyme
Type: biochemical

Compound: CC(C)CCC/C=C\CCCCCCCCCC(=O)O [compound 1, (Z)-16-methyl-11-heptadecenoic acid]
- IC50: 62.3 ± 0.7 µM
